Tested on: HIV-1 single-round infectious reporter virus
Assay: Single-round infectious HIV-1 luciferase reporter virus infection assay in HeLa CD4 cells
Assay type: cell-based
Settings: Human immunodeficiency virus 1, HeLa, 72 h, read-out: EC50 Group from Table 1
Experimental: • Virus production-Human embryonic Kidney cell line, 293T, was propagated in Dulbecco's Modified Eagle Medium (Invitrogen, Carlsbad, Calif.) containing 10% fetal Bovine serum (FBS, Sigma, St. Louis, Mo.). • Virus infection—Human epithelial cell line, HeLa, expressing the HIV-1 receptor CD4 was propagated in Dulbecco's Modified Eagle Medium (Invitrogen, Carlsbad, Calif.) containing 10% fetal Bovine serum (FBS, Sigma, St. Louis, Mo.) and supplemented with 0.2 mg/mL Geneticin (Invitrogen, Carlsbad, Calif.). Virus-Single-round infectious reporter virus was produced by co-transfecting human embryonic Kidney 293 cells with an HIV-1 envelope DNA expression vector and a proviral cDNA containing an envelope deletion mutation and the luciferase reporter gene inserted in place of HIV-1 nef sequences (Chen et al., Ref. 41). Transfections were performed using lipofectAMINE PLUS reagent as described by the manufacturer (Invitrogen, Carlsbad, Calif.). Experiment • 1. HeLa CD4 cells were plated in 96 well plates at a cell density of 1×10^4 cells per well in 100 μl Dulbecco's Modified Eagle Medium containing 10% fetal Bovine serum and incubated overnight. • 2. Compound was added in a 2 μl dimethylsulfoxide solution, so that the final assay concentration would be ≦10 μM. • 3. 100 μl of single-round infectious reporter virus in Dulbecco's Modified Eagle Medium was then added to the plated cells and compound at an approximate multiplicity of infection (MOI) of 0.01, resulting in a final volume of 200 μl per well. • 4. Virally-infected cells were incubated at 37 degrees Celsius, in a CO2 incubator, and harvested 72 h after infection. • 5. Viral infection was monitored by measuring luciferase expression from viral DNA in the infected cells using a luciferase reporter gene assay kit, as described by the manufacturer (Roche Molecular Biochemicals, Indianapolis, Ind.). Infected cell supernatants were removed and 50 μl of lysis buffer was added per well. After 15 minutes, 50 μl of freshly-reconstituted luciferase assay reagent was added per well. Luciferase activity was then quantified by measuring luminescence using a Wallac microbeta scintillation counter. • 6. The percent inhibition for each compound was calculated by quantifying the level of luciferase expression in cells infected in the presence of each compound as a percentage of that observed for cells infected in the absence of compound and subtracting such a determined value from 100. • 7. An EC50 provides a method for comparing the antiviral potency of the compounds of this disclosure. The effective concentration for fifty percent inhibition (EC50) was calculated with the Microsoft Excel Xlfit curve fitting software. For each compound, curves were generated from percent inhibition calculated at 10 different concentrations by using a four paramenter logistic model (model 205). Table 1 is the key for the data in Table 2. Results

Compound | EC50
N#C/C=C(\c1ccccc1)N1CCN(C(=O)C(=O)c2c[nH]c3ccccc23)CC1 [EN-01] | < 1 µM
N#CC(C#N)=C(c1ccccc1)N1CCN(C(=O)C(=O)c2c[nH]c3ccccc23)CC1 [EN-02, 2-((4-(2-(1H-indol-3-yl)-2-oxoacetyl)piperazin-1-yl)(phenyl)methylene)malononitrile] | < 1 µM
N#C/C=C(\c1ccccc1)N1CCN(C(=O)C(=O)c2c[nH]c3c(Br)ccc(F)c23)CC1 [EN-03] | < 1 µM
COc1cnc(-n2cnc(C)n2)c2[nH]cc(C(=O)C(=O)N3CCN(/C(=C/C#N)c4ccccc4)CC3)c12 [EN-05] | < 1 µM
COc1cnc(-n2ccnn2)c2[nH]cc(C(=O)C(=O)N3CCN(/C(=C/C#N)c4ccccc4)CC3)c12 [EN-06] | < 1 µM
COc1cnc(-n2ccnn2)c2[nH]cc(C(=O)C(=O)N3CCN(C(=C(C#N)C#N)c4ccccc4)CC3)c12 [EN-07] | < 1 µM
N#CC(C#N)=C(c1ccccc1)N1CCN(C(=O)C(=O)c2c[nH]c3c(-n4ccnn4)ncc(F)c23)CC1 [EN-08, 2-((4-(2-(4-fluoro-7-(1H-1,2,3-triazol-1-yl)-1H-pyrrolo[2,3-c]pyridin-3-yl)-2-oxoacetyl)piperazin-1-yl)(phenyl)methylene)malononitrile] | < 1 µM
O=C(O)/C=C(\c1ccccc1)N1CCN(C(=O)C(=O)c2c[nH]c3cccc(F)c23)CC1 [EN-09] | < 1 µM
COc1cnc(Cl)c2[nH]cc(C(=O)C(=O)N3CCN(C(=C(C#N)C#N)c4ccccc4)CC3)c12 [EN-10] | < 1 µM
N#CC(C#N)=C(c1ccccc1)N1CCN(C(=O)C(=O)c2c[nH]c3cccc(F)c23)CC1 [EN-11, 2-((4-(2-(4-fluoro-1H-indol-3-yl)-2-oxoacetyl)piperazin-1-yl)(phenyl)methylene)malononitrile] | < 1 µM
COc1cnc(Cl)c2[nH]cc(C(=O)C(=O)N3CCN(/C(=C/C#N)c4ccccc4)CC3)c12 [EN-13] | < 1 µM

Reference: patent US7504399B2, “Piperazine enamines as antiviral agents” (priority 2006, dated 2009)
